According to ChEMBL document CHEMBL1201862, “PubChem BioAssay data set” (2004):
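Interpolation was linear, between the two tested concentrations surrounding the appropriate level; five concentrations were tested over 48 hours in 96-well plates. At the GI50, growth is halved.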 Activity calls are given as the source filed them. Rule as the data show it: active = GI50 up to about 1.1 µM and inactive = higher.

Experiments:
Assay in all cases: growth of human tumour cells (NCI), 48 h
[1] = tested on: LOX IMVI
[2] = tested on: TK-10
[3] = tested on: MDA-N
[4] = tested on: A549
[5] = tested on: OVCAR-3
[6] = tested on: SF-539
[7] = tested on: MOLT-4
[8] = tested on: K562
[9] = tested on: SNB-19
[10] = tested on: OVCAR-5
[11] = tested on: SF-268
[12] = tested on: SK-MEL-28
[13] = tested on: OVCAR-4
[14] = tested on: T47D
[15] = tested on: HCC 2998
[16] = tested on: HOP-62
[17] = tested on: SR
[18] = tested on: DU-145
[19] = tested on: UACC-257
[20] = tested on: RXF 393

Structure (SMILES)	GI50 [1]	GI50 [2]	GI50 [3]	GI50 [4]	GI50 [5]	GI50 [6]	GI50 [7]	GI50 [8]	GI50 [9]	GI50 [10]	GI50 [11]	GI50 [12]	GI50 [13]	GI50 [14]	GI50 [15]	GI50 [16]	GI50 [17]	GI50 [18]	GI50 [19]	GI50 [20]
CC(=O)C1=CC=C/C1=N\Nc1ccccc1	2.84 µM (inactive)	7.14 µM (inactive)	6.22 µM (inactive)	15.1 µM (inactive)	3.22 µM (inactive)	2.36 µM (inactive)	3.67 µM (inactive)	3.94 µM (inactive)	21.1 µM (inactive)	7 µM (inactive)	7.43 µM (inactive)	14 µM (inactive)	5.71 µM (inactive)	3.33 µM (inactive)	6.07 µM (inactive)	20.8 µM (inactive)	0.543 µM (active)	14.9 µM (inactive)	15.5 µM (inactive)	11.6 µM (inactive)
CC(O)(Cc1ccccc1C#N)Cc1ccccc1C#N	> 100 µM (inactive)	> 100 µM (inactive)	> 100 µM (inactive)	> 100 µM (inactive)	65.6 µM (inactive)	> 100 µM (inactive)	28.6 µM (inactive)	50 µM (inactive)	> 100 µM (inactive)	> 100 µM (inactive)	> 100 µM (inactive)	> 100 µM (inactive)	54.2 µM (inactive)	37.6 µM (inactive)	> 100 µM (inactive)	> 100 µM (inactive)	> 100 µM (inactive)	> 100 µM (inactive)	89.7 µM (inactive)	> 100 µM (inactive)
CCOC(=O)c1c(SC(=O)c2ccc(C(C)(C)C)cc2)n(-c2ccccc2)c(=S)n(-c2ccccc2)c1=O	> 100 µM (inactive)	> 100 µM (inactive)	> 100 µM (inactive)	> 100 µM (inactive)	> 100 µM (inactive)	> 100 µM (inactive)	59.4 µM (inactive)	> 100 µM (inactive)	> 100 µM (inactive)	> 100 µM (inactive)	> 100 µM (inactive)	> 100 µM (inactive)	> 100 µM (inactive)	> 100 µM (inactive)	> 100 µM (inactive)	> 100 µM (inactive)	> 100 µM (inactive)	> 100 µM (inactive)	> 100 µM (inactive)	> 100 µM (inactive)
OC1c2ccccc2CCC1CN1CCN(CCOC(c2ccc(F)cc2)c2ccc(F)cc2)CC1 (stereo not drawn)	13.8 µM (inactive)	17 µM (inactive)	15.8 µM (inactive)	23.6 µM (inactive)	17.4 µM (inactive)	0.186 µM (active)	8.83 µM (inactive)	2.94 µM (inactive)	31.6 µM (inactive)	–	16.6 µM (inactive)	13.3 µM (inactive)	50.5 µM (inactive)	12.5 µM (inactive)	4.79 µM (inactive)	20.5 µM (inactive)	2.53 µM (inactive)	21 µM (inactive)	14.7 µM (inactive)	6.18 µM (inactive)
Cc1ccc(S(=O)(=O)NC2C(=O)c3ccccc3C(=O)C2n2cnc3ccccc32)cc1 (stereo not drawn)	31.8 µM (inactive)	17.7 µM (inactive)	19.4 µM (inactive)	33.5 µM (inactive)	4.3 µM (inactive)	24.7 µM (inactive)	19.2 µM (inactive)	90.6 µM (inactive)	27.4 µM (inactive)	> 100 µM (inactive)	40 µM (inactive)	29.3 µM (inactive)	2.19 µM (inactive)	25.2 µM (inactive)	0.906 µM (active)	50.4 µM (inactive)	34.4 µM (inactive)	57.9 µM (inactive)	28.9 µM (inactive)	24.9 µM (inactive)
O=C(Oc1cccc2cccnc12)c1cc2cc(CCl)ccc2oc1=O	25.3 µM (inactive)	25.5 µM (inactive)	16.1 µM (inactive)	27.7 µM (inactive)	3.68 µM (inactive)	18 µM (inactive)	2.8 µM (inactive)	3.1 µM (inactive)	43.7 µM (inactive)	31.5 µM (inactive)	18.5 µM (inactive)	30.1 µM (inactive)	25.6 µM (inactive)	4.29 µM (inactive)	20.3 µM (inactive)	44.3 µM (inactive)	4.27 µM (inactive)	20.7 µM (inactive)	6.05 µM (inactive)	17.3 µM (inactive)
O=C1C=C2S[C@H]3C[C@]2(C=C1Br)C1=C(N3)C(=O)c2[nH]cc3c2C1=NCC3 [(+)-DISCORHABDIN B]	0.347 µM (active)	1.4 µM (inactive)	0.165 µM (active)	2.47 µM (inactive)	0.347 µM (active)	1.63 µM (inactive)	0.148 µM (active)	0.209 µM (active)	12.4 µM (inactive)	1.85 µM (inactive)	1.54 µM (inactive)	1.4 µM (inactive)	0.218 µM (active)	0.283 µM (active)	2.3 µM (inactive)	–	2.69 µM (inactive)	1.92 µM (inactive)	0.213 µM (active)	0.272 µM (active)
